Measured values reported in PubChem BioAssay AID256 (DTP/NCI, 2004).
Values joined by “and” are separate entries in the source; they are usually repeats but may differ in a detail not shown here. Equal entries are not always repeated. Inconclusive results and toxic doses are left out.

Tested on: CD2F1 mice, L1210 leukemia ip, survival T/C
Test: NCI In Vivo Anticancer Drug Screen. Data for tumor model L1210 Leukemia (intraperitoneal) in CD2F1 (CDF1) mice
Conditions: endpoint: mean survival time, higher = longer survival
Procedure, shortened: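 Mice carrying a transplanted tumor received test compound or vehicle alone. The value is the measurement in the treated group divided by that in the vehicle-treated control group.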

[1] = dose: 100.0 mg/kg/injection, schedule: Q04DX003 (ip), vehicle: saline
[2] = dose: 200.0 mg/kg/injection, schedule: Q04DX003 (ip), vehicle: saline
[3] = dose: 400.0 mg/kg/injection, schedule: Q04DX003 (ip), vehicle: saline
[4] = dose: 100.0 mg/kg/injection, schedule: Q04DX003 (ip), vehicle: saline with Tween-80
[5] = dose: 200.0 mg/kg/injection, schedule: Q04DX003 (ip), vehicle: saline with Tween-80
[6] = dose: 400.0 mg/kg/injection, schedule: Q04DX003 (ip), vehicle: saline with Tween-80
[7] = dose: 100.0 mg/kg/injection, schedule: Q01DX009 (ip), vehicle: saline
[8] = dose: 200.0 mg/kg/injection, schedule: Q01DX009 (ip), vehicle: saline
[9] = dose: 400.0 mg/kg/injection, schedule: Q01DX009 (ip), vehicle: saline
[10] = dose: 100.0 mg/kg/injection, schedule: Q04DX002 (ip), vehicle: saline with Tween-80
[11] = dose: 200.0 mg/kg/injection, schedule: Q04DX002 (ip), vehicle: saline with Tween-80
[12] = dose: 400.0 mg/kg/injection, schedule: Q04DX002 (ip), vehicle: saline with Tween-80

## O=c1c(Br)cnc2ccccn12
dose: 12.5 mg/kg/injection, schedule: Q01DX001 (ip), vehicle: saline
  T/C: 107 % of control
dose: 25.0 mg/kg/injection, schedule: Q01DX001 (ip), vehicle: saline
  T/C: 98 % of control
dose: 50.0 mg/kg/injection, schedule: Q01DX001 (ip), vehicle: saline
  T/C: 102 % of control

## Nc1ncnc2[nH]c(=O)[nH]c12
dose: 12.5 mg/kg/injection, schedule: Q01DX009 (ip), vehicle: saline
  T/C: 101 % of control
dose: 25.0 mg/kg/injection, schedule: Q01DX009 (ip), vehicle: saline
  T/C: 114 % of control
dose: 50.0 mg/kg/injection, schedule: Q01DX009 (ip), vehicle: saline
  T/C: 105 % of control
[1]
  T/C: 108 % of control
[2]
  T/C: 112 % of control
[3]
  T/C: 108 % of control

## O=C(C=P(CC[PH+](Cc1ccccc1)Cc1ccccc1)(Cc1ccccc1)Cc1ccccc1)c1ccccc1.[Cl][Pd][Cl]
dose: 3.13 mg/kg/injection, schedule: Q04DX003 (ip), vehicle: distilled water + Tween-80
  T/C: 98 % of control
dose: 6.25 mg/kg/injection, schedule: Q04DX003 (ip), vehicle: distilled water + Tween-80
  T/C: 100 % of control
dose: 12.5 mg/kg/injection, schedule: Q04DX003 (ip), vehicle: distilled water + Tween-80
  T/C: 104 % of control
dose: 25.0 mg/kg/injection, schedule: Q04DX003 (ip), vehicle: distilled water + Tween-80
  T/C: 102 % of control
dose: 50.0 mg/kg/injection, schedule: Q04DX003 (ip), vehicle: distilled water + Tween-80
  T/C: 96 % of control
dose: 100.0 mg/kg/injection, schedule: Q04DX003 (ip), vehicle: distilled water + Tween-80
  T/C: 96 % of control
dose: 200.0 mg/kg/injection, schedule: Q04DX003 (ip), vehicle: distilled water + Tween-80
  T/C: 96 % of control

## CN(C)/C=N\c1ncnc2c1cnn2C1OC(CO)C(O)C1O (configuration not stated)
dose: 3.13 mg/kg/injection, schedule: Q01DX005 (ip), vehicle: water
  T/C: 96 % of control
dose: 6.25 mg/kg/injection, schedule: Q01DX005 (ip), vehicle: water
  T/C: 102 % of control
dose: 12.5 mg/kg/injection, schedule: Q01DX005 (ip), vehicle: water
  T/C: 110 % of control
dose: 25.0 mg/kg/injection, schedule: Q01DX005 (ip), vehicle: water
  T/C: 98 % of control and 107 % of control
dose: 50.0 mg/kg/injection, schedule: Q01DX005 (ip), vehicle: water
  T/C: 113 % of control and 110 % of control

## c1ccc(-c2ccccc2NC2=NCCO2)cc1
dose: 12.5 mg/kg/injection, schedule: Q04DX003 (ip), vehicle: saline
  T/C: 94 % of control
dose: 25.0 mg/kg/injection, schedule: Q04DX003 (ip), vehicle: saline
  T/C: 94 % of control
dose: 50.0 mg/kg/injection, schedule: Q04DX003 (ip), vehicle: saline
  T/C: 90 % of control

## CC1=C/C(=N\Nc2ccccc2)C(C(O)(C(F)(F)Cl)C(F)(F)Cl)C(C)(C)C1 (configuration not stated)
[4]
  T/C: 96 % of control
[5]
  T/C: 94 % of control
[6]
  T/C: 93 % of control

## CC(=O)Nc1ccc(C)cc1Cl
dose: 100.0 mg/kg/injection, schedule: Q01DX001 (ip), vehicle: saline with Tween-80
  T/C: 96 % of control
dose: 200.0 mg/kg/injection, schedule: Q01DX001 (ip), vehicle: saline with Tween-80
  T/C: 100 % of control
dose: 400.0 mg/kg/injection, schedule: Q01DX001 (ip), vehicle: saline with Tween-80
  T/C: 93 % of control

## O=C(O)C1C2CC(O)C(C2)C1C(=O)O (configuration not stated)
[7]
  T/C: 97 % of control
[1]
  T/C: 94 % of control
[8]
  T/C: 100 % of control
[2]
  T/C: 94 % of control
[9]
  T/C: 97 % of control
[3]
  T/C: 95 % of control

## Cc1ccc(C)c(C(O)C2CC2)c1 (configuration not stated)
[7]
  T/C: 96 % of control
[8]
  T/C: 100 % of control
[9]
  T/C: 102 % of control

## Cn1cnc([N+](=O)[O-])c1S(=O)(=O)NCN1CCOCC1
dose: 6.25 mg/kg/injection, schedule: Q01DX009 (ip), vehicle: Klucel (hydroxypropylcellulose) (HPC)
  T/C: 95 % of control
dose: 12.5 mg/kg/injection, schedule: Q01DX009 (ip), vehicle: Klucel (hydroxypropylcellulose) (HPC)
  T/C: 118 % of control and 101 % of control
dose: 25.0 mg/kg/injection, schedule: Q01DX009 (ip), vehicle: Klucel (hydroxypropylcellulose) (HPC)
  T/C: 101 % of control and 106 % of control
dose: 50.0 mg/kg/injection, schedule: Q01DX009 (ip), vehicle: Klucel (hydroxypropylcellulose) (HPC)
  T/C: 95 % of control and 110 % of control
dose: 100.0 mg/kg/injection, schedule: Q01DX009 (ip), vehicle: Klucel (hydroxypropylcellulose) (HPC)
  T/C: 96 % of control

## O=S(=O)(O)C(O)c1cccc2ccccc12 (configuration not stated)
[4]
  T/C: 91 % of control
[5]
  T/C: 91 % of control
[6]
  T/C: 94 % of control

## CNC(=O)OCC(COc1cc(C)ccc1C(C)C)OC(=O)NC (configuration not stated)
[10]
  T/C: 86 % of control
[11]
  T/C: 93 % of control
[12]
  T/C: 89 % of control

## COC(=N)C/C=C/CC(=N)OC
[4]
  T/C: 98 % of control
[5]
  T/C: 95 % of control
[6]
  T/C: 98 % of control

## O=C(CCc1ccc(O)cc1)N/N=C/c1ccc2c(c1)OCO2
[4]
  T/C: 90 % of control
[5]
  T/C: 90 % of control
[6]
  T/C: 88 % of control

## Fc1cc(F)c(F)c(Oc2c(F)c(F)c(-c3c(F)c(F)c(F)c(F)c3F)c(F)c2F)c1F
[4]
  T/C: 100 % of control
[5]
  T/C: 91 % of control
[6]
  T/C: 91 % of control

## CCN1CC1 (tested in a mixture with another compound)
dose: 1.17 mg/kg/injection, schedule: Q01DX009 (ip), vehicle: Klucel (hydroxypropylcellulose) (HPC)
  T/C: 93 % of control
dose: 1.56 mg/kg/injection, schedule: Q04DX003 (ip), vehicle: other
  T/C: 92 % of control
dose: 2.34 mg/kg/injection, schedule: Q01DX009 (ip), vehicle: Klucel (hydroxypropylcellulose) (HPC)
  T/C: 102 % of control
dose: 3.12 mg/kg/injection, schedule: Q04DX003 (ip), vehicle: other
  T/C: 101 % of control
dose: 4.68 mg/kg/injection, schedule: Q01DX009 (ip), vehicle: Klucel (hydroxypropylcellulose) (HPC)
  T/C: 86 % of control
dose: 6.25 mg/kg/injection, schedule: Q04DX003 (ip), vehicle: other
  T/C: 91 % of control
dose: 9.37 mg/kg/injection, schedule: Q04DX003 (ip), vehicle: Klucel (hydroxypropylcellulose) (HPC)
  T/C: 96 % of control and 98 % of control
dose: 14.2 mg/kg/injection, schedule: Q04DX003 (ip), vehicle: Klucel (hydroxypropylcellulose) (HPC)
  T/C: 86 % of control and 94 % of control
dose: 21.3 mg/kg/injection, schedule: Q04DX003 (ip), vehicle: Klucel (hydroxypropylcellulose) (HPC)
  T/C: 103 % of control

## Nc1ccn(C2OC(CO)C(OP(=O)(O)O)C2O)c(=O)n1 (configuration not stated)
dose: 4.4 mg/kg/injection, schedule: Q03HX024 (ip), vehicle: saline
  T/C: 229 % of control
dose: 8.7 mg/kg/injection, schedule: Q03HX024 (ip), vehicle: saline
  T/C: 252 % of control
dose: 17.4 mg/kg/injection, schedule: Q03HX024 (ip), vehicle: saline
  T/C: 296 % of control
dose: 34.8 mg/kg/injection, schedule: Q03HX024 (ip), vehicle: saline
  T/C: 111 % of control
dose: 200.0 mg/kg/injection, schedule: Q01DX009 (oral), vehicle: saline
  T/C: 159 % of control
dose: 400.0 mg/kg/injection, schedule: Q01DX009 (oral), vehicle: saline
  T/C: 175 % of control

## O=P(OCCCl)(OCCCl)C(Cl)(Cl)Cl
dose: 100.0 mg/kg/injection, schedule: Q01DX001 (ip), vehicle: saline
  T/C: 103 % of control
dose: 200.0 mg/kg/injection, schedule: Q01DX001 (ip), vehicle: saline
  T/C: 102 % of control
dose: 400.0 mg/kg/injection, schedule: Q01DX001 (ip), vehicle: saline
  T/C: 103 % of control

## COc1cc(Cl)ccc1NC(=O)Nc1ccccc1C
dose: 25.0 mg/kg/injection, schedule: Q04DX002 (ip), vehicle: saline with Tween-80
  T/C: 90 % of control
dose: 50.0 mg/kg/injection, schedule: Q04DX002 (ip), vehicle: saline with Tween-80
  T/C: 94 % of control
[10]
  T/C: 94 % of control
[11]
  T/C: 90 % of control
[12]
  T/C: 90 % of control
